Each compound was assayed on MCH receptors (assay: MCH receptor activity class (method not given)). Conditions: class by percent of control at 10^-7 M or IC50.

Compound | class
CN(C)c1ccnc(N[C@H]2CC[C@@H](NC(=O)c3ccc(F)cc3F)CC2)n1 [compound 344] | 3 (Class 3 The value of percent of control at 10^−7 M was more than 60% or the value of IC50 was more than 200 nM.)
CN(C)c1ccnc(N[C@H]2CC[C@@H](NC(=O)CCc3ccccc3)CC2)n1 [compound 345] | 3 (Class 3 The value of percent of control at 10^−7 M was more than 60% or the value of IC50 was more than 200 nM.)
CN(C)c1ccnc(N[C@H]2CC[C@@H](NC(=O)c3cc(F)c(F)c(F)c3F)CC2)n1 [compound 346] | 3 (Class 3 The value of percent of control at 10^−7 M was more than 60% or the value of IC50 was more than 200 nM.)
CCOc1ccc2ccccc2c1C(=O)N[C@H]1CC[C@@H](Nc2nccc(N(C)C)n2)CC1 [compound 347] | 3 (Class 3 The value of percent of control at 10^−7 M was more than 60% or the value of IC50 was more than 200 nM.)
CN(C)c1ccnc(N[C@H]2CC[C@@H](NC(=O)c3c(F)c(F)c(F)c(F)c3F)CC2)n1 [compound 348] | 3 (Class 3 The value of percent of control at 10^−7 M was more than 60% or the value of IC50 was more than 200 nM.)
CN(C)c1ccnc(N[C@H]2CC[C@@H](NC(=O)c3ccc(SC(F)(F)F)cc3)CC2)n1 [compound 349] | 3 (Class 3 The value of percent of control at 10^−7 M was more than 60% or the value of IC50 was more than 200 nM.)
CN(C)c1ccnc(N[C@H]2CC[C@@H](NC(=O)c3sc(Cl)c(Cl)c3Cl)CC2)n1 [compound 350] | 3 (Class 3 The value of percent of control at 10^−7 M was more than 60% or the value of IC50 was more than 200 nM.)
CN(C)c1ccnc(N[C@H]2CC[C@@H](NC(=O)COc3cccc(Cl)c3)CC2)n1 [compound 351, 2-(3-chlorophenoxy)-N-(cis-4-{[4-(dimethylamino)pyrimidin-2-yl]amino}cyclohexyl)acetamide] | 1 (Class 1: The value of percent of control at 10^−7 M was less than 40% or the value of IC50 was less than 50 nM.)
Cc1onc(-c2c(Cl)cccc2Cl)c1C(=O)N[C@H]1CC[C@@H](Nc2nccc(N(C)C)n2)CC1 [compound 352, 3-(2,6-dichlorophenyl)-N-(cis-4-{[4-(dimethylamino)pyrimidin-2-yl]amino}cyclohexyl)-5-methylisoxazole-4-carboxamide] | 1 (Class 1: The value of percent of control at 10^−7 M was less than 40% or the value of IC50 was less than 50 nM.)
CN(C)c1ccnc(N[C@H]2CC[C@@H](NC(=O)c3cccnc3Oc3ccccc3)CC2)n1 [compound 353, N-(cis-4-{[4-(dimethylamino)pyrimidin-2-yl]amino}cyclohexyl)-2-phenoxynicotinamide] | 2 (Class 2: The value of percent of control at 10^−7 M was from 40% to 60% or the value of IC′50 was from 50 nM to 200 nM.)
CN(C)c1ccnc(N[C@H]2CC[C@@H](NC(=O)c3cccnc3Sc3ccccc3)CC2)n1 [compound 354] | 3 (Class 3 The value of percent of control at 10^−7 M was more than 60% or the value of IC50 was more than 200 nM.)
Cc1ccc(Oc2ncccc2C(=O)N[C@H]2CC[C@@H](Nc3nccc(N(C)C)n3)CC2)cc1 [compound 355, N-(cis-4-{[4-(dimethylamino)pyrimidin-2-yl]amino}cyclohexyl)-2-(4-methylphenoxy)nicotinamide] | 1 (Class 1: The value of percent of control at 10^−7 M was less than 40% or the value of IC50 was less than 50 nM.)
CCCN(CCC)S(=O)(=O)c1ccc(C(=O)N[C@H]2CC[C@@H](Nc3nccc(N(C)C)n3)CC2)cc1 [compound 356, N-(cis-4-{[4-(dimethylamino)pyrimidin-2-yl]amino}cyclohexyl)-4-[(dipropylamino)sulfonyl]benzamide] | 1 (Class 1: The value of percent of control at 10^−7 M was less than 40% or the value of IC50 was less than 50 nM.)
CN(C)c1ccnc(N[C@H]2CC[C@@H](NC(=O)C(C)(C)Oc3ccc(Cl)cc3)CC2)n1 [compound 357, 2-(4-chlorophenoxy)-N-(cis-4-{[4-(dimethylamino)pyrimidin-2-yl]amino}cyclohexyl)-2-methylpropanamide] | 2 (Class 2: The value of percent of control at 10^−7 M was from 40% to 60% or the value of IC′50 was from 50 nM to 200 nM.)
CN(C)c1ccnc(N[C@H]2CC[C@@H](NC(=O)c3cc(-c4ccc(Cl)cc4)oc3C(F)(F)F)CC2)n1 [compound 358] | 3 (Class 3 The value of percent of control at 10^−7 M was more than 60% or the value of IC50 was more than 200 nM.)
CN(C)c1ccnc(N[C@H]2CC[C@@H](NC(=O)c3csc(-c4ccc5c(c4)CCO5)n3)CC2)n1 [compound 359, 2-(2,3-dihydro-1-benzofuran-5-yl)-N-(cis-4-{[4-(dimethylamino)pyrimidin-2-yl]amino}cyclohexyl)-1,3-thiazole-4-carboxamide] | 1 (Class 1: The value of percent of control at 10^−7 M was less than 40% or the value of IC50 was less than 50 nM.)
CN(C)c1ccnc(N[C@H]2CC[C@@H](NC(=O)c3cc(C(C)(C)C)nn3Cc3ccc(Cl)cc3Cl)CC2)n1 [compound 360, 3-tert-butyl-1-(2,4-dichlorobenzyl)-N-(cis-4-{[4-(dimethylamino)pyrimidin-2-yl]amino}cyclohexyl)-1H-pyrazole-5-carboxamide] | 2 (Class 2: The value of percent of control at 10^−7 M was from 40% to 60% or the value of IC′50 was from 50 nM to 200 nM.)
CN(C)c1ccnc(N[C@H]2CC[C@@H](NC(=O)C3=Cc4cc(Cl)ccc4OC3)CC2)n1 [compound 361, 6-chloro-N-(cis-4-{[4-(dimethylamino)pyrimidin-2-yl]amino}cyclohexyl)-2H-chromene-3-carboxamide] | 2 (Class 2: The value of percent of control at 10^−7 M was from 40% to 60% or the value of IC′50 was from 50 nM to 200 nM.)

Compound | class
CN(C)c1ccnc(N[C@H]2CC[C@@H](NC(=O)c3ccc(OC(F)(F)F)c(Cl)c3)CC2)n1 [compound 362] | 3 (Class 3 The value of percent of control at 10^−7 M was more than 60% or the value of IC50 was more than 200 nM.)
Cc1cc(=O)oc2c(OCC(=O)N[C@H]3CC[C@@H](Nc4nccc(N(C)C)n4)CC3)cccc12 [compound 363] | 3 (Class 3 The value of percent of control at 10^−7 M was more than 60% or the value of IC50 was more than 200 nM.)
CN(C)c1ccnc(N[C@H]2CC[C@@H](NC(=O)c3csc(-c4cccs4)n3)CC2)n1 [compound 364, N-(cis-4-{[4-(dimethylamino)pyrimidin-2-yl]amino}cyclohexyl)-2-(2-thienyl)-1,3-thiazole-4-carboxamide] | 1 (Class 1: The value of percent of control at 10^−7 M was less than 40% or the value of IC50 was less than 50 nM.)
COc1cccc(C(=O)NC[C@H]2CC[C@@H](Nc3nccc(N(C)C)n3)CC2)c1 [compound 365] | 3 (Class 3 The value of percent of control at 10^−7 M was more than 60% or the value of IC50 was more than 200 nM.)
CN(C)c1ccnc(N[C@H]2CC[C@@H](CNC(=O)c3cccc(Br)c3)CC2)n1 [compound 366] | 3 (Class 3 The value of percent of control at 10^−7 M was more than 60% or the value of IC50 was more than 200 nM.)
CN(C)c1ccnc(N[C@H]2CC[C@@H](CNC(=O)c3ccc(Br)cc3)CC2)n1 [compound 367] | 3 (Class 3 The value of percent of control at 10^−7 M was more than 60% or the value of IC50 was more than 200 nM.)
CN(C)c1ccnc(N[C@H]2CC[C@@H](CNC(=O)c3ccc4nonc4c3)CC2)n1 [compound 368] | 3 (Class 3 The value of percent of control at 10^−7 M was more than 60% or the value of IC50 was more than 200 nM.)
CN(C)c1ccnc(N[C@H]2CC[C@@H](CNC(=O)c3cccc(Cl)c3)CC2)n1 [compound 369] | 3 (Class 3 The value of percent of control at 10^−7 M was more than 60% or the value of IC50 was more than 200 nM.)
CN(C)c1ccnc(N[C@H]2CC[C@@H](CNC(=O)c3ccc(Cl)cc3)CC2)n1 [compound 370] | 2 (Class 2: The value of percent of control at 10^−7 M was from 40% to 60% or the value of IC′50 was from 50 nM to 200 nM.)
CN(C)c1ccnc(N[C@H]2CC[C@@H](CNC(=O)/C=C/c3ccccc3)CC2)n1 [compound 371] | 2 (Class 2: The value of percent of control at 10^−7 M was from 40% to 60% or the value of IC′50 was from 50 nM to 200 nM.)
CN(C)c1ccnc(N[C@H]2CC[C@@H](CNC(=O)c3ccc(Cl)c([N+](=O)[O-])c3)CC2)n1 [compound 372] | 2 (Class 2: The value of percent of control at 10^−7 M was from 40% to 60% or the value of IC′50 was from 50 nM to 200 nM.)
CN(C)c1ccnc(N[C@H]2CC[C@@H](CNC(=O)Cc3ccc(Cl)cc3)CC2)n1 [compound 373] | 2 (Class 2: The value of percent of control at 10^−7 M was from 40% to 60% or the value of IC′50 was from 50 nM to 200 nM.)
CN(C)c1ccnc(N[C@H]2CC[C@@H](CNC(=O)c3cccc(C#N)c3)CC2)n1 [compound 374] | 3 (Class 3 The value of percent of control at 10^−7 M was more than 60% or the value of IC50 was more than 200 nM.)
CN(C)c1ccnc(N[C@H]2CC[C@@H](CNC(=O)c3cc(Cl)cc(Cl)c3)CC2)n1 [compound 375] | 2 (Class 2: The value of percent of control at 10^−7 M was from 40% to 60% or the value of IC′50 was from 50 nM to 200 nM.)
CN(C)c1ccnc(N[C@H]2CC[C@@H](CNC(=O)c3ccc(Cl)c(Cl)c3)CC2)n1 [compound 376] | 2 (Class 2: The value of percent of control at 10^−7 M was from 40% to 60% or the value of IC′50 was from 50 nM to 200 nM.)
CN(C)c1ccnc(N[C@H]2CC[C@@H](CNC(=O)C(c3ccccc3)c3ccccc3)CC2)n1 [compound 377, N-[(cis-4-{[4-(dimethylamino)pyrimidin-2-yl]amino}cyclohexyl)methyl]-2,2-diphenylacetamide] | 1 (Class 1: The value of percent of control at 10^−7 M was less than 40% or the value of IC50 was less than 50 nM.)
CN(C)c1ccnc(N[C@H]2CC[C@@H](CNC(=O)c3ccc(F)c(F)c3)CC2)n1 [compound 378] | 3 (Class 3 The value of percent of control at 10^−7 M was more than 60% or the value of IC50 was more than 200 nM.)
CN(C)c1ccnc(N[C@H]2CC[C@@H](CNC(=O)c3cc(F)cc(F)c3)CC2)n1 [compound 379] | 3 (Class 3 The value of percent of control at 10^−7 M was more than 60% or the value of IC50 was more than 200 nM.)
